In patent publication US8486606B2, “Acrylate derivative, haloester derivative, polymer compound and photoresist composition” (Kuraray Co., Ltd., priority 2008, dated 2013):

Assay: Evaluation of solubility at 25° C. in organic solvent
Assay type: physicochemical
Protocol: A solubility of 2-methacryloyloxyacetoxy-4,5-oxathiatricyclo[4.2.1.0^3,7]nonane-5,5-dioxide obtained in Example 2 in tetrahydrofuran was measured according to the following operation.
1 g of a sample to be used for the evaluation of solubility was prepared. 1 g of an organic solvent described in Table 1 and the foregoing sample were mixed at 25° C., and the mixture was stirred at 25° C. for 10 minutes as it was. An insoluble matter was filtered out from the obtained mixed solution, and the organic solvent was distilled off from the filtrate. Subsequently, the residue was dried under reduced pressure for 5 hours, thereby obtaining the sample in the saturated solution. A mass of the subject sample was measured, and its solubility was calculated according to the following expression. Solubility(% by mass)=100×(Mass of the sample in the saturated solution)/(Mass of the saturated solution)
The experiment and evaluation of solubility were carried out in the same manner as in Example 7, except that in Example 7, the sample and the organic solvent were changed to those shown in Table 1 or Table 2.

[1] = organic solvent: Methyl ethyl ketone
[2] = organic solvent: Tetrahydrofuran

SMILES	Solubility [1] [% by mass]	Solubility [2] [% by mass]
C=C(C)C(=O)OCC(=O)OC1C2CC3C1OS(=O)(=O)C3C2 (stereo not drawn) [Example 2, 2-methacryloyloxyacetoxy-4,5-oxathiatricyclo[4.2.1.0^3,7]nonane-5,5-dioxide]	45.5	48.1
C=C(C)C(=O)OCC(=O)OC1C2CC3C(O2)C1OS3(=O)=O (stereo not drawn) [Example 4, 5-methacryloyloxyacetoxy-3,7-dioxa-2-thiatricyclo[4.2.1.0^4,8]nonane-2,2-dioxide]	30.8	31.9
C=C(C)C(=O)OCC(=O)OC1C2CC3C(=O)OC1C3O2 (stereo not drawn) [reference compound]	4.2	7.8
